Data on 1 sequence can be found in patent publication US9045525B2, “Amyloid β-protein-specific production-inhibiting polypeptide” (THE DOSHISHA, priority 2012, dated 2015).

The target of assay [1] is γ-secretase against βCTF (C99-FLAG) (Homo sapiens, UniProt P05067). As to the kind of experiment: γ-Secretase activity inhibition experiment in vitro, C99-FLAG substrate. The following applies: polypeptide 1, 5, 10, 20, and 50 μM. It is filed as biochemical. The method, then: (§1) A polypeptide having βCTF (C99-FLAG: SEQ ID NO: 16) and mouse-derived Notch protein having a FLAG peptide at the C-terminal side (modification of NCBI Accession No. Q01705.2; SEQ ID NO: 17; hereunder referred to as “Notch”) shown in FIG. 2(A) were each made into a solution having a final concentration of 50 nM.
γ-secretase against βCTF (C99-FLAG), sequence (P05067 with tags, fused parts or gaps): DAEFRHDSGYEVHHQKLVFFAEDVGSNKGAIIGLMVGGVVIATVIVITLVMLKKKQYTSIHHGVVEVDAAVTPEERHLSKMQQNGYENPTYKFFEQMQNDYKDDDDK
(§2) To these solutions, 9-7 polypeptide, 6-5 polypeptide, #1 polypeptide, #2 polypeptide, #3 polypeptide, and #4 polypeptide were added in such a manner that the final concentrations were 50 μM, followed by reacting with 50 μL of CHAPSO-solubilized membrane fraction (γ-secretase-containing fraction) for 4 hours. The reaction temperature was 37° C. As a negative control experiment, DMSO was used in place of the six types of polypeptides described above.
(§3) Each sample after completion of the reaction was measured in the following manner. As shown in FIG. 2(A), a sample using C99-FLAG was subjected to Western blotting using a monoclonal antibody (82E-1) that specifically recognizes the N terminal of C99-FLAG, and the amount of Aβ40 protein produced by the cleavarage by γ-secretase was measured. In contrast, the reaction sample using Notch-FLAG was subjected to Western blotting using an anti-FLAG monoclonal antibody, and the amount of NICD produced to the separete by γ-secretase was also measured. FIG. 2(B) and FIG. 2(C) show the results.
(§4) An experiment was conducted in the same manner as in Experimental Example 1 described above, except that only #1 polypeptide was used and the amount of #1 polypeptide was selected so that the final concentrations were 0.5, 1, 5, 10, 20, and 50 μM.
(§5) An experiment was conducted in the same manner as in Experimental Example 1 described above, except that S4 polypeptide was used as the polypeptide, and each addition amount was set in such a manner that the final concentrations were 1, 5, 10, 20, and 50 μM. In this Experimental Example, #4 polypeptide was added in such a manner that the final result was 50 μM.

The subject of assay [2] is Notch transiently expressed in CHO-K1 cells (7WD10 cells). As to the kind of experiment: Cleavage of Notch protein (NICD) in 7WD10 cells. It is filed as cell-based. The note with it: polypeptide 25 μM and 50 μM; cells also expressing st6gal. The method, then:
(§6) An experiment was conducted wherein #1, #2, and #4 polypeptides were reacted with CHO-K1 cells (7WD10 cells) that stably expressed APP protein and transiently expressed Notch to confirm the production of Aβ protein and cleavage of Notch protein.

Assay [3] concerns the target γ-secretase against Notch (Mus musculus, UniProt Q01705, V1997L). As to the kind of experiment: γ-Secretase activity inhibition experiment in vitro, Notch-FLAG substrate. The following applies: polypeptide 1, 5, 10, 20, and 50 μM. It is filed as biochemical. The method, then:
as §1, §2, §3, §4, §5

Assay [4] relates to CHO-K1 cells (7WD10 cells) that stably expressed APP protein. As to the kind of experiment: Aβ protein production inhibition experiment in 7WD10 cells (sAPPβ, βCTF, Aβ). It is filed as cell-based. The note with it: polypeptide 25 μM and 50 μM; cells also expressing st6gal. As to the method:
as §6

The test system of assay [5] is sialyltransferase (st6gal), substrate of β-secretase, in 7WD10 cells. As to the kind of experiment: Cleavage of sialyltransferase (st6gal) in 7WD10 cells. The note with it: polypeptide 25 μM and 50 μM. It is filed as cell-based. The method, then: An experiment was conducted in the same manner as Experimental Example 6 except that only S4 polypeptide was used as the polypeptide; the S4 polypeptide was added to have the final concentrations of 25 μM and 50 μM; the cell used in this experiment was CHO-K1 cell (7WD10 cell) that expressed APP protein and transiently expressed Notch and sialyltransferase (st6gal), which is the substrate of β-secretase; and confirmation of cleavage by sialyltransferase was conducted in addition to the confirmation of the production of Aβ protein and cleavage of Notch protein.

Assay [6] deals with β-secretase against APP (APP-EQ-FLAG) (Homo sapiens, UniProt P05067). As to the kind of experiment: β-Secretase activity inhibition experiment in vitro, APP-EQ-FLAG substrate. It is filed as biochemical. The note with it: polypeptide 1, 5, 10, 20, 50, and 100 μM. The method, then: A solution containing the polypeptide having APP (APP-EQ-FLAG: SEQ ID NO: 18) as shown in FIG. 5(A) was prepared in such a manner that its final concentration was 50 nM.
β-secretase against APP (APP-EQ-FLAG), sequence (P05067 with tags, fused parts or gaps): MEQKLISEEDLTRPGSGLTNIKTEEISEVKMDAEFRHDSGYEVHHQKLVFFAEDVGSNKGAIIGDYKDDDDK
To this solution, 9-7 polypeptide, 6-5 polypeptide, #1 polypeptide, #2 polypeptide, #3 polypeptide, #4 polypeptide, #5 polypeptide, #6 polypeptide, #7 polypeptide, #8 polypeptide, #9 polypeptide, and #10 polypeptide were added in such a manner that each solution had the final concentration of 50 μM, followed by reacting with 50 μL β-secretase (0.02 U/μL) for 4 hours. The reaction temperature was 37° C. As a negative control experiment, DMSO was used in place of the 12 types of polypeptides mentioned above.
After completion of the reaction, each sample was subjected to Western blotting using a monoclonal antibody (82E-1) that specifically recognizes the N terminal of APP-EQ-FLAG as shown in FIG. 5(A). Thereafter, the amount of Aβ33-FLAG protein separated by β-secretase was measured.
An experiment was conducted in the same manner as Experimental Example 4 described above except that S4 and #4 polypeptides were used as the polypeptide and the amounts of these polypeptides added were adjusted so that the final concentrations were 1, 5, 10, 20, 50, and 100 μM.

Entries after “also recorded” stand apart in the source; their conditions may differ.

γ-secretase against Notch, sequence (Q01705 with tags, fused parts or gaps V1997L): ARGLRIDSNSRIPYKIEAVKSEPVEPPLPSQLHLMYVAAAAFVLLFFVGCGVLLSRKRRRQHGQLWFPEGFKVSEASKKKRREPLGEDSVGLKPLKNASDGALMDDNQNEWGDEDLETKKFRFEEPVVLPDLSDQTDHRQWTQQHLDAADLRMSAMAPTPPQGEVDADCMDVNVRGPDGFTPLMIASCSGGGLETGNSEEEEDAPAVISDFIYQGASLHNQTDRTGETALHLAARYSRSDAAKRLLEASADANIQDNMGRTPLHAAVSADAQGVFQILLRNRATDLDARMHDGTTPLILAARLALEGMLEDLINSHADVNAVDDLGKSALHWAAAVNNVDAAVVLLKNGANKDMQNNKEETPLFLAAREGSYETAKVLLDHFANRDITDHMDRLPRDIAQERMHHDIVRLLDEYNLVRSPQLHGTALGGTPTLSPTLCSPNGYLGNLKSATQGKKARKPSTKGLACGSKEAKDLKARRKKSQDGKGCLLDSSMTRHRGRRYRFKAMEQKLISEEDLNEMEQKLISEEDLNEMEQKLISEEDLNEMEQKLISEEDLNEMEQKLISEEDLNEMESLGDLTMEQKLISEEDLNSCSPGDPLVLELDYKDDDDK

For FGBTWDYWVYR [S4], the “cleavage activity of γ-secretase against βCTF” value in assay [1] was “inhibits more intensely in a concentration-dependent manner the cleavage activity of γ-secretase against βCTF”. Further, the “amount of NICD in the cell lysate” value in assay [2] is “did not decrease”. For the same sequence, the “cleavage activity of γ-secretase against Notch (NICD)” value in assay [3] is “not inhibited”. Further, in assay [4], the “Aβ protein (intracellular Aβ) in the cell lysate” value is given as “decreased”, the “amount of Aβ protein (released Aβ) in the cell culture medium” value is “reduced” and the “sAPPβ production amount in the cell culture medium” value is recorded as “reduced”. Also, the “st6gal production amount in the cell culture medium” value in assay [5] is recorded as “not decreased”. In addition, the “cleavage activity of β-secretase against APP” value in assay [6] is “inhibited the cleavage activity of β-secretase against APP, although inferior to #4 polypeptide; also recorded: inhibited the cleavage activity of β-secretase against APP in a concentration-dependent manner”.
